Results published in patent publication US20050074819A1, “Screening method of drug for treatment of neuropathic pain” (JAPAN HEALTH SCIENCES FOUNDATION, priority 2003, published 2005).

Columns and labels:
[1] = tested on: normal rats; experiment: Tactile allodynia in normal rats after intrathecal administration of ATP-stimulated cultured microglia; format: in vivo, rat
Protocol: (§1) We used the spinal nerve injury model (Kim, S. H. & Chung, J. M. An experimental model for peripheral neuropathy produced by segmental spinal nerve ligation in the rat. Pain 50, 355-363. (1992)) with some modifications; a unilateral L5 spinal nerve of male Wistar rats was tightly ligated and cut just distal to the ligature. The mechanical allodynia was assessed in naive and nerve-injured rats using calibrated von Frey filaments (0.4-15.1 g). Rats were injected intrathecally with P2XR antagonists, TNP-ATP and PPADS (Sigma-RBI), and antisense and mismatch ODN. For the experiments in FIG. 5, the cultured microglia (see Supplementary Information 1) that had been pre-incubated with or without ATP (50 μM) were injected intrathecally in normal rats. Full details of experimental methods are as follows.
(§2) A unilateral L5 spinal nerve of male Wistar rats was tightly ligated and cut just distal to the ligature. To assess the mechanical allodynia, the calibrated von Frey filaments (0.4-15.1 g) were applied to the plantar surface of the hindpaw from below the mesh floor. The 50% paw withdrawal threshold was determined using the up-down method (Chaplan, S. R., Bach, F. W., Pogrel, J. W., Chung, J. M. & Yaksh, T. L. Quantitative assessment of tactile allodynia in the rat paw. J Neurosci Methods 53, 55-63, 1994). Rats were implanted with a PE-10 polyethylene tube to the lumber enlargement (Yaksh, T. L., Jessell, T. M., Gamse, R., Mudge, A. W. & Leeman, S. E. Intrathecal morphine inhibits substance P release from mammalian spinal cord in vivo. Nature 286, 155-157, 1980) for intrathecal injection of P2XR antagonists [2′,3′-O-(2,4,6-trinitrophenyl)adenosine 5′-triphosphate (TNP-ATP) (Sigma-RBI) and pyridoxalphosphate-6-azophenyl-2′,4′-disulphonic acid (PPADS) (Sigma-RBI)], P2X4R antisense or mismatch ODN. We confirmed that PPADS and TNP-ATP used in the present study show biological activity to inhibit effects of α,β-methylene ATP in vitro and in vivo. The 16-base antisense ODN endcapped with phosphorothioate linkages were designed according to the primary sequence of the rat P2X4R cDNA (X87763). The sequence of the P2X4R antisense and mismatch ODN was 5′-CAGCCCGCCATGGCTC-3′ (SEQ ID NO: 3) and 5′-ACCGCCGCCAGTGCCT-3′ (SEQ ID NO: 4), respectively. The mismatch ODN served as a control. Rats were injected intrathecally with antisense ODN (5 nmol 10 μl^−1) and mismatch ODN (5 nmol 10 μl^−1) using a 25-μl Hamilton syringe with 28-gauge needle once a day from day 0 (immediately after nerve injury) to day 6. […] After the test, to quantify the levels of P2X4R protein in the spinal cord in both groups using Western blot analysis, the membrane fraction from the ipsilateral spinal cord segments L4-L6 was prepared. […]

[2] = molecular target: T1, P2X4Rs (Rattus norvegicus, UniProt P51577); experiment: Intracellular Ca2+ imaging (fura-2) of ATP-evoked response in primary cultured microglia; format: cell-based; conditions: for ATP-evoked increase in 340/360 ratio (fura-2): 10 min before and during ATP (50 μM, 10 s)
T1 construct: mixed glial culture was prepared from neonatal Wistar rats; endogenous in cells; host or cells: primary cultured microglia from neonatal Wistar rats
T1 sequence (P51577 1-388): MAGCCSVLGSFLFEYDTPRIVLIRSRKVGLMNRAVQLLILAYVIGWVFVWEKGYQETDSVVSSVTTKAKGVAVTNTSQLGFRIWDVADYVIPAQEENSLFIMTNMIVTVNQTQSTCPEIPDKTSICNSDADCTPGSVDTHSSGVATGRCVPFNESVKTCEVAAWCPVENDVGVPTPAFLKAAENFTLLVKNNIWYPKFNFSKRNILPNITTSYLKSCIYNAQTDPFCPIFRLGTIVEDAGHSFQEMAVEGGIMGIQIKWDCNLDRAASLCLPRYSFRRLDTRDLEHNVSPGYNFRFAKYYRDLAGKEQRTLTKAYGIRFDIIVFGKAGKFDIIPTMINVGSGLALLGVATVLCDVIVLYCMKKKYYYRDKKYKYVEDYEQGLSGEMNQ
Description: As P2X4Rs are reported to be highly permeable to Ca^2+ (Khakh, B. S. et al. International union of pharmacology. XXIV. Current status of the nomenclature and properties of P2X receptors and their subunits. Pharmacol Rev 53, 107-118, 2001), we investigated whether the P2X4Rs on these microglia were functional by applying the agonist ATP and monitoring the level of intracellular Ca^2+ ([Ca^2+]i) in individual cells using the Ca^2+-sensitive fluorescent dye fura-2.
The detailed procedures are as follows. Rat primary cultured microglia were prepared according to the method described previously (Nakajima, K. et al. Identification of elastase as a secretory protease from cultured rat microglia. J Neurochem 58, 1401-1408, 1992). In brief, mixed glial culture was prepared from neonatal Wistar rats and maintained for 10-16 days in DMEM with 10% fetal bovine serum. Microglia were obtained as floating cells over the mixed glial culture. The floating cells were collected by a gentle shake and transferred to appropriate dishes or glasses, and then the microglia attached to them were used for RT-PCR, intracellular Ca^2+ imaging, immunocytochemistry.

[3] = tested on: male Wistar rats with L5 spinal nerve injury; experiment: Tactile allodynia after L5 spinal nerve injury, von Frey paw withdrawal threshold, intrathecal injection; format: in vivo, rat; conditions: for paw withdrawal threshold 45 min after injection: ipsilateral hindpaw
Protocol: as §1
A unilateral L5 spinal nerve of male Wistar rats was tightly ligated and cut just distal to the ligature. To assess the mechanical allodynia, the calibrated von Frey filaments (0.4-15.1 g) were applied to the plantar surface of the hindpaw from below the mesh floor. The 50% paw withdrawal threshold was determined using the up-down method (Chaplan, S. R., Bach, F. W., Pogrel, J. W., Chung, J. M. & Yaksh, T. L. Quantitative assessment of tactile allodynia in the rat paw. J Neurosci Methods 53, 55-63, 1994). Rats were implanted with a PE-10 polyethylene tube to the lumber enlargement (Yaksh, T. L., Jessell, T. M., Gamse, R., Mudge, A. W. & Leeman, S. E. Intrathecal morphine inhibits substance P release from mammalian spinal cord in vivo. Nature 286, 155-157, 1980) for intrathecal injection of P2XR antagonists [2′,3′-O-(2,4,6-trinitrophenyl)adenosine 5′-triphosphate (TNP-ATP) (Sigma-RBI) and pyridoxalphosphate-6-azophenyl-2′,4′-disulphonic acid (PPADS) (Sigma-RBI)], P2X4R antisense or mismatch ODN. We confirmed that PPADS and TNP-ATP used in the present study show biological activity to inhibit effects of α,β-methylene ATP in vitro and in vivo. The 16-base antisense ODN endcapped with phosphorothioate linkages were designed according to the primary sequence of the rat P2X4R cDNA (X87763). The sequence of the P2X4R antisense and mismatch ODN was 5′-CAGCCCGCCATGGCTC-3′ (SEQ ID NO: 3) and 5′-ACCGCCGCCAGTGCCT-3′ (SEQ ID NO: 4), respectively. The mismatch ODN served as a control. Rats were injected intrathecally with antisense ODN (5 nmol 10 μl^−1) and mismatch ODN (5 nmol 10 μl^−1) using a 25-μl Hamilton syringe with 28-gauge needle once a day from day 0 (immediately after nerve injury) to day 6. On day 7, paw withdrawal threshold of antisense ODN- and mismatch ODN-treated rats were tested. After the test, to quantify the levels of P2X4R protein in the spinal cord in both groups using Western blot analysis, the membrane fraction from the ipsilateral spinal cord segments L4-L6 was prepared. For the experiments in which cultured microglia were administered intrathecally, the cultured microglia were pre-incubated with ATP (50 μM) or PBS for 1 hr at 37° C. immediately prior to administration. Microglia with their supernatant were injected intrathecally in normal rats and paw withdrawal threshold was tested 1, 3 and 5 hr later. TNP-ATP (10 μM) was preincubated with microglia starting 10 min prior to ATP application.

[4] = tested on: P2X4R protein; experiment: Immunofluorescence intensity of P2X4R protein in individual dorsal horn microglia after ODN treatment; format: in vivo, rat; conditions: 5 nmol intrathecal once a day for 7 days
Description: (§3) Transverse L5 spinal cord sections (30 μm) were cut and processed for immunohistochemistry using P2X4R antibody (Alomone). Markers of microglia, OX42 (Chemicon) and iba1 (gifted from S. Kohsaka); astrocytes, GFAP (Boehringer Mannheim); spinal cord neurones, NeuN (Chemicon) and MAP2 (Chemicon) were used to identify the type of P2X4R-positive cells. To assess immunofluorescence staining of cells quantitatively, we measured the immunofluorescence intensity of the P2X4R or OX42 as the average pixel intensity within each cell. Full details of experimental methods are as follows.
(§4) Transverse L5 spinal cord sections (30 μm) were incubated for 2 hr at room temperature in a blocking solution (3% normal goat serum) and then incubated for 48 hr at 4° C. in the primary antibody for P2X4R (anti-P2X4 receptor, 1:500, Alomone). […] The spinal cord sections were analysed using a MicroRadiance Confocal Imaging System (Bio-Rad) and an Olympus IX70 microscope equipped for epifluorescence. […] Microglia, as identified by OX42 immunofluorescence were outlined, and the immunofluorescence intensity (using a 9-bit scale) of the P2X4R or OX42 was determined as the average pixel intensity within each cell. Background fluorescence intensity was determined and was subtracted from the value obtained for microglia.

[5] = tested on: P2X4R protein; experiment: Western blot of P2X4R protein in spinal cord membrane fraction after intrathecal ODN treatment; format: in vivo, rat; conditions: 5 nmol intrathecal once a day for 7 days, immunoblot
Protocol: A unilateral L5 spinal nerve of male Wistar rats was tightly ligated and cut just distal to the ligature. To assess the mechanical allodynia, the calibrated von Frey filaments (0.4-15.1 g) were applied to the plantar surface of the hindpaw from below the mesh floor. The 50% paw withdrawal threshold was determined using the up-down method (Chaplan, S. R., Bach, F. W., Pogrel, J. W., Chung, J. M. & Yaksh, T. L. Quantitative assessment of tactile allodynia in the rat paw. J Neurosci Methods 53, 55-63, 1994). […] After the test, to quantify the levels of P2X4R protein in the spinal cord in both groups using Western blot analysis, the membrane fraction from the ipsilateral spinal cord segments L4-L6 was prepared. […]
The membrane fraction from spinal cord segments L4-L6 ipsilateral or contralateral to the nerve injury was used. […] The blots were detected using a chemiluminescence method (ECL system; Amersham) and exposed to autoradiography films (Hyperfilm-ECL; Amersham).

[6] = tested on: microglia in the dorsal horn; experiment: Number of microglia and OX42 immunofluorescence in dorsal horn after ODN treatment; format: in vivo, rat; conditions: 5 nmol intrathecal once a day for 7 days
Description: as §3, §4

[7] = tested on: effects of α,β-methylene ATP; experiment: Check of biological activity against effects of α,β-methylene ATP in vitro and in vivo
Protocol: as §2, with “vivo.” for “vivo. The 16-base antisense ODN endcapped with phosphorothioate linkages were designed according to the primary sequence of the rat P2X4R cDNA (X87763). The sequence of the P2X4R antisense and mismatch ODN was 5′-CAGCCCGCCATGGCTC-3′ (SEQ ID NO: 3) and 5′-ACCGCCGCCAGTGCCT-3′ (SEQ ID NO: 4), respectively. The mismatch ODN served as a control. Rats were injected intrathecally with antisense ODN (5 nmol 10 μl^−1) and mismatch ODN (5 nmol 10 μl^−1) using a 25-μl Hamilton syringe with 28-gauge needle once a day from day 0 (immediately after nerve injury) to day 6.”

[8] = tested on: rat model of postoperative pain; conditions: administration at the incision area, effective only before surgical operation; cited from earlier work
[9] = tested on: nociceptive behaviours; conditions: intrathecal 30 or 100 nmol; cited from earlier work
[10] = 5 nmol intrathecal once a day for 7 days, tested day 7
[11] = 30 nmol intrathecal 5 hr after ATP-stimulated microglia

Q: With `Nc1ncnc2c1ncn2[C@@H]1O[C@H](COP(=O)(O)OP(=O)(O)OP(=O)(O)O)[C@@H](O)[C@H]1O` [ATP, adenosine 5′-triphosphate] as the compound, how does the “paw withdrawal threshold after intrathecal administration” value ([1]; normal rats, ATP 50 μM, tested 1, 3 and 5 hr later) read?
A: unaffected

Q: And the “340/360 emission ratio for fura-2 ([Ca2+]i)” value ([2]; agonist 50 μM, 10 s)?
A: transient increase

Q: Which “nerve injury-induced decrease in paw withdrawal threshold compared with mismatch ODN” value [3, 10] does the source give for “5′-CAGCCCGCCATGGCTC-3′ (phosphorothioate end caps, number of linkages not given here) [P2X4R antisense ODN]” here?
A: significantly less

Q: And the “recovery of paw withdrawal threshold towards the baseline level prior to nerve injury” value [3, 10]?
A: 47.4±8.3%

Q: What about the “decrease of immunofluorescence intensity of P2X4R protein in individual microglia versus mismatch ODN” value [4] of the same compound?
A: 37.1±0.2%

Q: What about the “decrease of P2X4R protein level in spinal cord homogenates versus mismatch ODN” value [5] of the same compound?
A: 32.0±4.8%

Q: And the “level of OX42 immunofluorescence per individual microglia versus mismatch ODN” value [6]?
A: nor was there a difference

Q: What about the “number of microglia in the dorsal horn versus mismatch ODN” value [6] of the same compound?
A: no difference

Q: What does the source list for “2′,3′-O-(2,4,6-Trinitrophenyl) Adenosine 5′-Triphosphate [TNP-ATP]”?
A: paw withdrawal threshold on the side contralateral to the nerve injury ([3]; 30 nmol intrathecal, 45 min after injection): 14.3 ± 0.8 g; time of peak increase in paw withdrawal threshold after injection ([3]; 30 nmol intrathecal, nerve-injured rats): about 45 min; effect on tactile allodynia ([3]; day 7, 30 nmol intrathecal, at peak of effect): reversed; dose producing half-maximum effect on paw withdrawal threshold ([3]; day 7, intrathecal): 8.1 nmol; paw withdrawal threshold 45 min after injection ([3]; day 7 after nerve injury, 30 nmol intrathecal): 14.6 ± 0.5 g; recovery of paw withdrawal threshold ([3]; day 14, 30 nmol intrathecal, 45 min after injection): 73%; dose producing half-maximum effect on paw withdrawal threshold ([3]; day 14, intrathecal): 15.5 nmol; paw withdrawal threshold 45 min after injection ([3]; day 14 after nerve injury, 30 nmol intrathecal): 11.6 ± 1.3 g; motor behaviour following administration ([3]; intrathecal): no alteration; effect on allodynia caused by ATP-stimulated microglia [1, 11]: reversed the allodynia; time of peak increase in paw withdrawal threshold after injection [1, 11]: 45 to 75 min; decrease in paw withdrawal threshold caused by ATP-stimulated microglia ([1]; 10 μM together with ATP (50 μM) in the microglia pre-incubation): prevented; biological activity on effects of α,β-methylene ATP [7]: inhibit; ATP-evoked increase in 340/360 ratio (fura-2) ([2]; 10 μM): suppressed

Q: For `CCOc1ccc(Nc2ccc(/C(=C3C=C/C(=[N+](/CC)Cc4cccc(S(=O)(=O)[O-])c4)C=C/3C)c3ccc(N(CC)Cc4cccc(S(=O)(=O)[O-])c4)cc3C)cc2)cc1.[Na+]` [brilliant blue G], which “ATP-evoked increase in 340/360 ratio (fura-2)” value ([2]; 100 nM) is on record?
A: not altered

Q: Which “paw withdrawal threshold compared with untreated controls” value [3, 10] does the source give for “5′-ACCGCCGCCAGTGCCT-3′ (DNA, backbone and methylation of C not given here; end-capped with phosphorothioate linkages) [mismatch ODN]” here?
A: not different

Q: With `Cc1nc(N=Nc2ccc(S(=O)(=O)O)cc2S(=O)(=O)O)c(COP(=O)(O)O)c(C=O)c1O` [PPADS, Pyridoxalphosphate-6-azophenyl-2′,4′-disulphonic acid] as the compound, how does the “allodynia in a rat model of postoperative pain” value [8] read?
A: suppressed allodynia

Q: And the “effect on paw withdrawal threshold” value ([3]; day 7, 30 or 100 nmol intrathecal)?
A: no effect

Q: And the “effect on paw withdrawal threshold” value ([3]; day 14, 30 or 100 nmol intrathecal)?
A: no effect

Q: What about the “biological activity on effects of α,β-methylene ATP” value [7] of the same compound?
A: inhibit

Q: What about the “ATP-evoked increase in 340/360 ratio (fura-2)” value ([2]; 10 μM) of the same compound?
A: unaffected

Q: What about the “nociceptive behaviours (intrathecal α,β-methylene ATP, second phase of formalin test, bee venom)” value [9] of the same compound?
A: suppress
